From patent US10647686B2, “Substituted pyrimidines for preventing or treating cancer and inflammatory diseases” (KOREA RESEARCH INSTITUTE OF CHEMICAL TECHNOLOGY, priority 2016, dated 2020)

How the values were obtained:
DRAK1 = DRAK1 (Homo sapiens (Human), UniProt Q9UEE5); assay: DRAK1 kinase activity inhibition (ADP-Glo, MRCL3 peptide substrate); format: biochemical
Method: (§1) DRAK1 and DRAK2 recombinant proteins were purchased from SignalChem Inc. To measure the kinase enzyme activity, the ADP-Glo™ kit provided by Promega Inc. was used. Buffer A used in the kinase reaction was composed of 60 mM Tris-Cl (pH 7.5), 30 mM MgCl2 and 0.15% BSA. Just before the experiment, 1 mM DTT was prepared by diluting 1 M solution and added thereto.
(§2) To measure the DRAK1 and DRAK2 activity, the substrate MRCL3 peptide and ATP were mixed with the enzymes. After an appropriate period of time, the reaction product ADP was quantitatively analyzed.
(§3) The buffer solution A was used to make a 3× substrate solution of 3× concentration so that the final concentrations of ATP and MRCL3 peptides were 1 uM, respectively, and 2.5 μl of each solution was dispensed into Optiplate 384 (perkin-elmer) microplate.
(§4) The final concentrations of ATP and MRCL3 peptide were made to be 1 uM respectively by using buffer A, followed by preparing a 3× substrate solution. The prepared substrate solution was distributed in Optiplate 384 (Perkin-Elmer) microplate (2.5 ul/well). Then, the compounds of Examples 1˜39 and the compounds of Comparative Examples 1-6, whose concentrations were tripled by the final concentration were distributed thereto (2.5 ul/well). Lastly, DRAK1 or DRAK2 enzyme solution, properly diluted by using buffer A, was added thereto (2.5 ul/well). Centrifugation was performed at 800 rpm for 1 minute, and then enzyme reaction was induced at 30° C.
(§5) 2 hours later, the enzyme reaction was terminated. To eliminate residual ATP, ADP-Glo™ reagent contained in ADP-Glo™ was added to each well at the concentration of 7.5 ul, which was the same amount as the sum of the previously added reagents, followed by centrifugation at the same RPM and time as the above. Additional reaction was induced at room temperature for 40 minutes. To convert the ADP produced by the kinase activity to ATP, 15 ul of kinase detection buffer was added to each well, followed by centrifugation. Five minutes after the centrifugation was completed, the luminescence value of the reaction product was determined using Envision, and the enzyme activity inhibition effect of the compound was measured. Then, IC50 of each compound was determined using Prism program.
(§6) The compounds of Example 1 and Example 19 were used as the experimental group and the compound of Comparative Example 6 was used as the control.

DRAK2 = DRAK2 (Homo sapiens (Human), UniProt O94768); assay: DRAK2 kinase activity inhibition (ADP-Glo, MRCL3 peptide substrate); format: biochemical; settings: for DRAK2 selectivity (DRAK2 versus DRAK1) / DRAK2 IC50 compared with Comparative Examples 7 and 8 (n is 0): result in words; for DRAK2 selectivity (DRAK2 versus DRAK1): from Table 4; for DRAK2 IC50 compared with Comparative Examples 7 and 8 (n is 0): from Table 5
DRAK2, sequence (O94768 whole entry): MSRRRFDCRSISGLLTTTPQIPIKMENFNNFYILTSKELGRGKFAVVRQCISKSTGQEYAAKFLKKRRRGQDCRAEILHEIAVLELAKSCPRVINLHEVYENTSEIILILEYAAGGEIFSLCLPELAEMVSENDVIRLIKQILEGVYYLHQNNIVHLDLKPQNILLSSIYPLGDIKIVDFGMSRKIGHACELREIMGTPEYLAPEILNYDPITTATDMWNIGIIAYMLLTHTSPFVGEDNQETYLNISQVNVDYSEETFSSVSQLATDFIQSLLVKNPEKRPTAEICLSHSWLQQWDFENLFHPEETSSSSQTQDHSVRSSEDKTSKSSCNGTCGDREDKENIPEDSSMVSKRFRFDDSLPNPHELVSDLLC
Method: as §1, §2, §3, §4, §5, §6
To evaluate DRAK2 inhibition activity of the compound represented by formula 1 according to the number of n, the experiment was performed with the compounds of Example 1, Example 19, Example 40, Comparative Example 7 and W Comparative Example 8 by the same manner as described in Experimental Example 1, leading to the measurement of IC50 to DRAK2.

[1] = Table 3, recombinant enzyme, 1 uM ATP, 1 uM MRCL3 peptide, 30° C., 2 hours
[2] = Table 4, Experimental Example 2, DRAK2 selectivity evaluation
[3] = Table 5, Experimental Example 3, according to the number of n

DRAK1, sequence (Q9UEE5 whole entry): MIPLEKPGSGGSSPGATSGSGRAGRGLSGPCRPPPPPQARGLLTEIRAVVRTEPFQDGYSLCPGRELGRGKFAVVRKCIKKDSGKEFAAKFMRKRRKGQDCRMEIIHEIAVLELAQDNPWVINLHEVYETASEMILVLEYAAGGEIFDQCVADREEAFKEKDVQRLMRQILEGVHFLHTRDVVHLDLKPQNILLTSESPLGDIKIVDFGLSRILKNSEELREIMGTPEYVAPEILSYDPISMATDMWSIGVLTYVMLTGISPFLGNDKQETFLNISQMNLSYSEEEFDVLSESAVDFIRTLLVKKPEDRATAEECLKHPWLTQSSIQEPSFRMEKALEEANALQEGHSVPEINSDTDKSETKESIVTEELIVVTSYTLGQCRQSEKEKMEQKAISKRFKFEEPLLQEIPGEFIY

| SMILES | IC50 (DRAK1; [1]) [nM] | IC50 (DRAK1; [2]) [nM] | IC50 (DRAK2; [1]) [nM] | IC50 (DRAK2; [2]) [nM] | IC50 (DRAK2; [3]) [nM] | DRAK2 selectivity (DRAK2 versus DRAK1) (DRAK2) | DRAK2 IC50 compared with Comparative Examples 7 and 8 (n is 0) (DRAK2) |
| --- | --- | --- | --- | --- | --- | --- | --- |
| NCCCNc1nc(Nc2ccc(Cl)cc2)ncc1Cl [Example 1, N4-(3-aminopropyl)-5-chloro-N2-(4-chlorophenyl)pyrimidine-2,4-diamine] | 410 | 410 | 38 | 38 | 32 | excellent DRAK2 selectivity | significantly lower IC50 |
| NCCCNc1nc(Nc2ccc(S(=O)(=O)c3ccc([N+](=O)[O-])cc3)cc2)ncc1Cl [Example 13, N4-(3-aminopropyl)-5-chloro-N2-(4-(4-nitrophenylsulfonyl)phenyl)pyrimidine-2,4-diamine] | 110 |  | 14 |  |  |  |  |
| NCCCNc1nc(Nc2ccc3c(c2)OCCO3)ncc1Cl [Example 22, N4-(3-aminopropyl)-5-chloro-N2-(2,3-dihydrobenzo[b][1,4]dioxin-6-yl)pyrimidine-2,4-diamine] | 220 |  | 24 |  |  |  |  |
| NCCCNc1nc(Nc2ccc(F)cc2)ncc1Cl [Example 9, N4-(3-aminopropyl)-5-chloro-N2-(4-fluorophenyl)pyrimidine-2,4-diamine] | 290 |  | 19 |  |  |  |  |
| NCCCNc1nc(Nc2ccc3c(c2)CCCC3)ncc1Cl [Example 23, N4-(3-aminopropyl)-5-chloro-N2-(5,6,7,8-tetrahydronaphthalene-2-yl)pyrimidine-2,4-diamine] | 160 |  | 15 |  |  |  |  |
| NCCCNc1nc(Nc2ccc(Br)cc2)ncc1Cl [Example 17, N4-(3-aminopropyl)-N2-(4-bromophenyl)-5-chloropyrimidine-2,4-diamine] | 390 |  | 23 |  |  |  |  |
| Cc1ccc(Nc2ncc(Cl)c(NCCCN)n2)cc1Cl [Example 6, N4-(3-aminopropyl)-5-chloro-N2-(3-chloro-4-methylphenyl)pyrimidine-2,4-diamine] | 220 |  | 24 |  |  |  |  |

Continued by falling IC50 (DRAK1; [1]), values first:

| IC50 (DRAK1; [1]) [nM] | IC50 (DRAK1; [2]) [nM] | IC50 (DRAK2; [1]) [nM] | IC50 (DRAK2; [2]) [nM] | IC50 (DRAK2; [3]) [nM] | DRAK2 selectivity (DRAK2 versus DRAK1) (DRAK2) | DRAK2 IC50 compared with Comparative Examples 7 and 8 (n is 0) (DRAK2) | SMILES |
| --- | --- | --- | --- | --- | --- | --- | --- |
| 710 | 710 | 23 | 23 | 23 | excellent DRAK2 selectivity | significantly lower IC50 | Cc1cnc(Nc2ccc(Cl)cc2)nc1NCCCN [Example 19, N4-(3-aminopropyl)-N2-(4-chlorophenyl)-5-methylpyrimidine-2,4-diamine] |
| 370 |  | 44 |  |  |  |  | CCc1ccc(Nc2ncc(Cl)c(NCCCN)n2)cc1 [Example 11, N4-(3-aminopropyl)-5-chloro-N2-(4-ethylphenyl)pyrimidine-2,4-diamine] |
| 310 |  | 59 |  |  |  |  | NCCCNc1nc(Nc2ccc(Cl)c(Cl)c2)ncc1Cl [Example 8, N4-(3-aminopropyl)-5-chloro-N2-(3,4-dichlorophenyl)pyrimidine-2,4-diamine] |
| 200 |  | 70 |  |  |  |  | NCCCNc1nc(Nc2ccc(F)c(Cl)c2)ncc1Cl [Example 7, N4-(3-aminopropyl)-5-chloro-N2-(3-chloro-4-fluorophenyl)pyrimidine-2,4-diamine] |
| 180 |  | 26 |  |  |  |  | NCCCNc1nc(Nc2ccc(Oc3ccccc3)cc2)ncc1Cl [Example 10, N4-(3-aminopropyl)-5-chloro-N2-(4-phenoxyphenyl)pyrimidine-2,4-diamine] |
| 180 |  | 26 |  |  |  |  | NCCCNc1nc(Nc2ccc(F)c(C(F)(F)F)c2)ncc1Cl [Example 15, N4-(3-aminopropyl)-5-chloro-N2-(4-fluoro-3-(trifluoromethyl)phenyl)pyrimidine-2,4-diamine] |
| 180 |  | 35 |  |  |  |  | COc1ccc(Nc2ncc(Cl)c(NCCCN)n2)cc1Cl [Example 18, N4-(3-aminopropyl)-5-chloro-N2-(3-chloro-4-methoxyphenyl)pyrimidine-2,4-diamine] |
| 30 |  | 22 |  |  |  |  | NCCCNc1nc(Nc2ccc(N3CCNCC3)cc2)ncc1Cl [Example 25, N4-(3-aminopropyl)-5-chloro-N2-(4-(piperazine-1-yl)phenyl)pyrimidine-2,4-diamine] |
